In patent US20170157102A1, “USE OF PERHEXILINE” (CONSIGLIO NAZIONALE DELLE RICERCHE, priority 2014, published 2017):
Like-named read-outs stand apart in the source and are kept apart here.

Tests used:
[1] = test system: S. mansoni juvenile worms (4 weeks old); type: cell-based, Schistosoma mansoni; conditions: 10 μM overnight, at 5 days
Experimental: (§1) FIG. 2. Juvenile worms (4 weeks old, S. mansoni) in vitro survival following overnight treatment with 10 μM PHX, 10 μM Gambogic Acid, 10 μM Praziquantel (PZQ) or DMSO (vehicle). Parasites death was assessed by optical examination each day using the following criteria: reduction of motility, tegumental damages and darker appearance. Data shown are the means of results of at least three experiments.
(§2) Seven-eight male worms or 4-5 worm pairs were recovered under aseptic conditions from infected mice by perfusion of mesenteric veins at 28 days (juvenile) or 56-days post infection (adult pairs) or 2-4 months post-infection (adult males). After washing, the worms were transferred into a 35 mm plates containing 3 mL of DMEM complete worms media and incubated at 37° C. in a humid atmosphere containing 5% CO2 with drugs overnight. Next, the worms were washed 3 times with drug-free medium and were incubated for 5 days at 37° C./5% CO2 and monitored daily under a stereo microscope for mobility, tegumental damage, viability and egg output (worm pairs). The experiment was repeated at least three times.
Juvenile worms (4 weeks old parasites) were also tested at the same conditions reported above. Following over night incubation of PHX (10 μM), viability of parasites was reduced by 80% after 5 days of observation (FIG. 2). […]

[2] = test system: S. mansoni worms; conditions: juvenile 4 weeks after infection vs adult 6 or 7 weeks, mice (Pica-Mattoccia et al., 2004); cited from earlier work
[3] = test system: S. mansoni juvenile worms; conditions: at 8 days; previous report (Livia-Pica et al, 2004); cited from earlier work
[4] = test system: adult parasites (schistosomes); conditions: treatment of adult parasites (Redman et al.); cited from earlier work
[5] = test system: S. mansoni adult worm pairs; experiment: Egg production of adult worm pairs in vitro; type: cell-based, Schistosoma mansoni; conditions: 5 μM overnight, vs DMSO control
Experimental: as §2
In order to test the effect of PHX on egg production, adult worm pairs were treated overnight using the sub lethal dose of 5 μM. Total number of eggs laid by female parasites was determined 3 and 6 days after the treatment. To do so, the medium containing the eggs was harvested and briefly centrifuged. The pellet containing the eggs was re-suspended in 500 μl of saline solution and the egg number was determined by microscopy analysis.

[6] = test system: S. mansoni adult worms; experiment: microbe, parasite or virus in culture; type: cell-based, Schistosoma mansoni
Experimental: as §1, with “1. Adult” for “2. Juvenile”, “(8” for “(4”
as §2
Male adult worms (7-8 worms/sample) obtained from infected mice were cultured at 37° C., 5% CO2 in DMEM complete medium (10% FBS) in presence of different concentrations of PHX (3-10 μM) and for variable time (12h to 5 days). For all experiments Gambogic Acid (1-10 μM) and PZQ (1-10 μM) were used as positive controls while DMSO was used as negative control. […] Parasites death was assessed by optical examination each day using the following criteria: reduction of motility, tegumental damages and darker appearance.

[7] = cited from earlier work
[8] = test system: S. mansoni newly transformed schistosomula; experiment: CellTiterGlo luminescent viability assay on schistosomula; conditions: 24 h; for CC50: values of two independent experiments
Experimental: Cercariae, shed from infected snails, were subsequently converted to schistosomula by mechanical transformation using an optimised version of the protocol of Brink et al., 1977 previously described (Protasio et al. 2013). Briefly, the cercarial suspension (approximately 50.000 cercariae) was placed in a glass 40 ml tube on ice for 60 minutes in order to reduce parasite motility. Tail detachment was obtained by shaking cercariae vigorously for approximately 30 seconds in a vortex mixer before passing these through a 22G syringe needle approximately 10-12 times. Next, the separation of heads/schistosomula and tails was obtained by placing the heads plus tails suspension on 4-5 ml of ice-cold 70% Percoll in tube and centrifugating (600×g) for 10 minutes at 4° C. Finally, the schistomula preparations were washed twice (with DMEM complete media lacking FBS) and microscope examination was used to assess the quantity and quality of purified schistosomula (less than 1% tails). Schistosomula were cultured at 37° C. in 6 wells tissue culture plates containing 3 ml schistosomula complete media in an atmosphere of 5% CO2 for 24 hr before any further experimental manipulations proceeded. Negligible parasite death occurred in this media during the 24 hr culturing period. Following this, schistosomula were aliquoted into flat-bottom 384-well black-sided for compound assays.
Compounds are stored as solution of 100% DMSO at −20 ° C. under inert atmosphere. Intermediate storage microplates, in the 384 well/plate format, are prepared on demand and stored in the same controlled environment as the stock solutions. Intermediate microplate stored compounds are transferred to assay plates by the acoustic droplet ejection technology (ATS-100, EDC Biosystems USA) which ensures a safe, contactless, pre-dilution free delivery. The test set was transferred to 384 well, black, tissue culture treated destination plate. […]
The plate set was let to incubate with the compounds at 37° C./5% CO2 for 24 hours. […] The readout, luminescence based, was carried out by a CCD based detector (ViewLux, PerkinElmer USA). […]

[9] = test system: S. mansoni; experiment: In vivo efficacy in mice infected with S. mansoni (total worm count, hepatic egg burden); conditions: two weeks after treatment
Experimental: FIG. 3. Effect of PHX on total worm count (A) and egg burdens (B) in mice infected with S. mansoni. One-way analysis of variance (one-way Anova) was used to compare means of the samples. The p-values are indicated. PZQ (Praziquantel, oral administration, 500 mg/kg), PERHEX LOW (PHX, oral administration, 23 mg/kg), PERHEX HIGH (PHX, oral administration, 70 mg/kg).
Female ICR (CD-1) outbred and C57BL/6, 4-7 weeks old mice (Harlan Laboratories) were housed under controlled conditions [(22±2)° C.; (65±15)% relative humidity; 12/12 h light/dark cycle]. The mice received standard food and water ad libitum. Female ICR (CD-1) outbred mice were infected transcutaneously with approximately 80 (for mixed infection) or 200 (single sex) S. mansoni cercariae for life cycle maintainance and in vitro worm assays. For in vivo experiments, C57BL/6 mice were infected with 140 cercariae and administered with selected compounds.
C57B/L6 inbred female mice (5-6 weeks old) were divided in 4 groups of 7 animals each and treated with DMSO (control), PZQ or two dosages of PHX. All compounds were administered orally (vehicle is 2.5% Cremophor EL) 42 days post infection. The amount of PHX administered (23 mg/kg and 70 mg/kg) was guided by available information of therapeutic dose in use for angina treatment (Ashrafian H., 2007); PZQ was used at the standard dose (500 mg/Kg). Toxicity of compounds (e.g., death and behavioral changes) was assessed daily during and after treatment until the time of euthanasia. At 56 days post infection, mice were euthanized with an intraperitoneal injection of Tiletamina/Zolazepam ([…])+Xylazina (100 mg/kg) and adult worms perfused as described above.
Compound efficacy in vivo, measured using a number of criteria, was compared to that of the anti-schistosomal drug, PZQ. The criteria include the numbers of male and female worms (total worm count) recovered by perfusion and hepatic egg burden (number of eggs in the liver). To recover eggs trapped in liver, whole livers from individual mice were excised, weighed and incubated in a 4% KOH solution over night at 37° C. Eggs were counted under a dissecting microscope as previously described (Cheever, A. W., 1968).
Based on the strong in vitro effects of PHX against larvae, juvenile (4 weeks old) and adult worms, the in vivo efficacy of the drug was tested in mice infected with S. mansoni. Based on the previous cardiovascular studies of the drug (Ashrafian H., 2007), two different concentrations of PHX were used: a low dose (23 mg/Kg) and a high dose (70 mg/Kg). […] Two weeks after the treatment, mice were sacrificed and the total worm count and egg burden (number of eggs in the liver) were determined (FIG. 3). […]

[10] = HIGH dose 70 mg/Kg oral single dose
[11] = LOW dose 23 mg/Kg oral single dose

O=C(C1CCCCC1)N1CC(=O)N2CCc3ccccc3C2C1 (stereo not shown) [Praziquantel]
survival rate of juvenile worms [1]: 50%
ED50 against juvenile worms relative to adult worms [2]: at least 30 times
survival of juvenile worms [3]: approximately 80%

CNCCCN1c2ccccc2CCc2ccccc21 [desipramine]
rate of BODIPY FL C5-sphyngomyelin breakdown [4]: no decrease

C1CCC(C(CC2CCCCN2)C2CCCCC2)CC1 (stereo not shown) [Perhexiline, 2-(2,2-dicyclohexylethyl)piperidine]
reduction in egg production ([5]; 3 days after treatment): around 60%
reduction in egg production ([5]; 6 days after treatment): around 60%
effect on viability of adult worms ([6]; 3 μM): no effect
inhibition at 5 µM ([6]; Schistosoma mansoni, read-out: reduced viability of adult worms): ~50%
viability of adult parasites ([6]; overnight incubation 10 μM, after 5 days): statistically significant decreased viability
rate of BODIPY FL C5-sphyngomyelin breakdown [4]: no decrease
inter-individual differences in apparent oral clearance ([7]; CYP2D6 polymorphisms): approximately 100 fold
plasma half-life ([7]; most subjects): 24 to 48 h
plasma half-life ([7]; poor metabolizers (CYP2D6)): up to 40 days
defined therapeutic range of plasma concentration ([7]; range that avoids hepatotoxicity and peripheral neuropathy (Horowitz et al 1986)): 0.15-0.6 mg 1^−1
CC50 ([8]; Schistosoma mansoni, read-out: CC50 of newly transformed schistosomula, 24 h, 0.019-50 μM, four parameter fit): 9.56 µM
CC50 ([8]; read-out: CC50 of newly transformed schistosomula, 0.019-50 μM, four parameter fit): 12.4 µM
cytotoxicity in the initial screen ([8]; single concentration 10 μM, threshold 70% cytotoxicity, scaled DMSO 0% / gambogic acid 100%): positive compound
decrease in total worm counts [9, 10]: 63%
reduction of egg burden (number of eggs in the liver) [9, 10]: 60%
decrease in total worm counts [9, 11]: 35%
reduction of egg burden (number of eggs in the liver) [9, 11]: 50%

Cl.N [NH4Cl]
rate of BODIPY FL C5-sphyngomyelin breakdown [4]: no decrease
